Experimental data reported in patent US20140094521A1, “BENZYLAMINE DERIVATIVE” (priority 2011, published 2014).

Legend:
Format in all cases: cell-based
[1] = tested on: human promyelocytic leukemia cell line HL60; assay: Survival rate of blood cancer cells (WST-8, 72 hours); conditions: HL-60, 72 h, read-out: EC50, Promyelocytic leukemia cell
Protocol: (§1) Human acute myelogenous leukemia cell line KG1 and human promyelocytic leukemia cell line HL60 in addition to human multiple myeloma cell line RPMI8226 were seeded in a highly nutrient medium containing 10% FES (RPMI1640, 100 μL) in a density of 1×10^3 cells/well. The cells were incubated under 5% carbon dioxide atmosphere at 37° C. overnight. Separately, the compound of Example 2 was dissolved in DMSO and the obtained solution was diluted with the same culture medium. The mixture was added to each well so that the final concentrations of the compound became 0.39 μM, 0.78 μM, 1.56 μM, 3.13 μM, 6.25 μM, 12.5 μM or 50 μM.
(§2) In addition, melphalan, which is a multiple myeloma therapeutic agent, was added to each well at the same final concentrations as positive controls for comparison. Further, an experimental case in which only dimethylsulfoxide was added in the final concentration of 0.2 to 0.8 v/v % without adding the compound was provided.
(§3) Then, after the cells were cultured under 5% carbon dioxide atmosphere at 37° C. for 72 hours, the culture medium was removed and a culture medium obtained by mixing 100 μL of the above culture medium and 10 μL of WST-8, which is a reagent for measuring a cell number, was added to each well. After the cells were cultured under 5% carbon dioxide atmosphere at 37° C. for 2 hours, an absorbance at 450 nm was measured. The absorbance value when the cells were treated with DMSO only was set to be 100%, and a ratio of absorbance values at each concentration of the present invention compound or melphalan relative to the value were calculated as survival rate of each blood cancer cell. In addition, EC50, i.e. 50% effective concentration value, of each compound against each blood cancer cell was calculated from the obtained results.

[2] = tested on: Human multiple myeloma cell line RPMI8226; assay: as above; conditions: RPMI-8226, 72 h, read-out: EC50, Multiple myeloma cell
Protocol: as §1, §2, §3

[3] = tested on: Human acute myelogenous leukemia cell line KG1; assay: as above; conditions: read-out: EC50, Acute myelogenous leukemia cell
Protocol: as §1, §2, §3

[4] = tested on: Human multiple myeloma cell line RPMI8226; assay: Anticancer activity against multiple myeloma cell (Cell Counting Kit-8, 3 days); conditions: RPMI-8226, 72 h, read-out: IC50 value against a multiple myeloma cell
Protocol: Human multiple myeloma cell line RPMI8226 was seeded on a 96 well plate in a density of 1×10^4 cells/well, and incubated under 5% carbon dioxide atmosphere at 37° C. overnight. Separately, the compound obtained in Example 2 was dissolved in dimethylsulfoxide, and added to each well so that the final concentration of the compound became 0.5 μM, 1 μM, 2 μM, 3 μM, 12.5 μM, 25 μM or 50 μM.
as §2, with “well so that” for “well at”, “the” for “the same”, “final concentration of the compound became 10 μM, 20 μM, 30 μM, 40 μM or 50 μM” for “final concentrations”, “of 0.5” for “of 0.2 to 0.8”
Then, after the cell was cultured under 5% carbon dioxide atmosphere at 37° C. for 3 days, an absorbance of formazan, which is an orange pigment produced by a living cell, at the wavelength of 420 nm was measured using a reagent for measuring cell proliferation/cytotoxicity (manufactured by Dojin Chemical Co., Cell Counting Kit-8). […] In addition, IC50 values were calculated from the obtained results.

[5] = tested on: SP cell of human multiple myeloma cell line RPMI8226; assay: Anticancer activity against SP cell (Hoechst33342 flow cytometry); conditions: 5 μM
Protocol: A stem cell can undergo differentiation into various tissues and cells such as a hematopoietic stem cell, and has the quality to exclude fluorescent chemical substance such as Hoechst33258 extracellularly. […] A cell having such properties is called as an SP cell, i.e. Side Population Cell. […] Therefore, an effect of the present invention compound against a cancerous SP cell was examined.
Specifically, human multiple myeloma cell line RPMI8226 was incubated in the presence of the present invention compound similarly to Example 4. The cell was dispersed in 3% FBS DMEH so that the concentration became 1×10^6 cells/mL. A temperature of the dispersion was increased to 37° C., and then Hoechst33342 was added thereto so that the concentration thereof became 5 μg/ml. The mixture was incubated at 37° C. for 60 minutes under a shaded state with stirring every 20 minutes. Then, the mixture was centrifuged at 800×g for 3 minutes, and the supernatant was removed. Further, a washing procedure in which cooled 2% FES PBS was added, the mixture was centrifuged and the supernatant was removed was repeated two times. Separately, propidium iodide was dissolved in PBS to obtain a 200 μg/mL solution. […] The emitted fluorescence was passed through a bandpass filters of 450 nm and 675 nm, and deployed to obtain a two-dimensional dot plot. […]

Work on N[C@@H](Cc1ccc(N(CCCl)CCCl)cc1)C(=O)O [Melphalan, melphalan] yielded an EC50 [1] of 0.734 µM, an EC50 [2] of 9.82 µM and an EC50 [3] of 3.69 µM. For the same compound, the IC50 [4] was 21 µM, the “ratio of stained cells in SP region relative to the total cells” value ([5]; control (0.5% DMSO only) 0.680 ± 0.0173%) was 0.563 ± 0.0777% and the “ratio of stained cells in Non-SP region relative to the total cells” value ([5]; control (0.5% DMSO only) 19.2 ± 0.295%) was 5.05 ± 0.414%.
